The results in this text go back to US7205305B2, “Inhibitors of p38” (Vertex Pharmaceuticals Incorporated, priority 1996, dated 2007).

The experiment deals with activated p38 (Homo sapiens, UniProt Q16539). Kind of experiment: Inhibition of phosphorylation of EGF receptor peptide ("kinase"). The class given is biochemical. The conditions noted are these: inhibition of phosphorylation of EGF receptor peptide by activated p38. The procedure: This assay was carried out in the presence of 10 mM MgCl2, 25 mM β-glycerophosphate, 10% glycerol and 100 mM HEPES buffer at pH 7.6. […] The stock solution was aliquotted into vials. A fixed volume of DMSO or inhibitor in DMSO (final concentration of DMSO in reaction was 5%) was introduced to each vial, mixed and incubated for 15 minutes at room temperature. EGF receptor peptide, […], a phosphoryl acceptor in p38-catalyzed kinase reaction (1), was added to each vial to a final concentration of 200 μM. The kinase reaction was initiated with ATP (100 μM) and the vials were incubated at 30° C. After 30 minutes, the reactions were quenched with equal volume of 10% trifluoroacetic acid (TFA).
activated p38, sequence (Q16539 whole entry): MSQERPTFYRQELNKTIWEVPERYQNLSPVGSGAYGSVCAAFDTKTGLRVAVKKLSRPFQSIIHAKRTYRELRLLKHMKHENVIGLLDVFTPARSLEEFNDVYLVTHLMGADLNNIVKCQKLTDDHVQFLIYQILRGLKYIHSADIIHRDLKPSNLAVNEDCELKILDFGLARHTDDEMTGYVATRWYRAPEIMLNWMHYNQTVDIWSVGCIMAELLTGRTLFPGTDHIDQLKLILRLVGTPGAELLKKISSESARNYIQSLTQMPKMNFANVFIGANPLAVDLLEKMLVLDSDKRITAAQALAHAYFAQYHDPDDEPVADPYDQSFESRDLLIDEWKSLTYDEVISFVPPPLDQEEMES
The phosphorylated peptide was quantified by HPLC analysis. Separation of phosphorylated peptide from the unphosphorylated peptide was achieved on a reverse phase column (Deltapak, 5 μm, C18 100D, part no. 011795) with a binary gradient of water and acteonitrile, each containing 0.1% TFA.
The term IC50 denotes the concentration at which inhibition is half-maximal. The low end stands for greater potency in that assay, the high end for weaker potency in that assay. `COc1ccc(-c2c(=O)ncn3nc(Sc4ccccc4)ccc23)cc1` [Compound 10]: the concentration for half-maximal inhibition (IC50) is not below 1000 nM.

As to `Nc1ccc(F)c(-c2c(=O)ncn3nc(Sc4ccc(F)cc4)ccc23)c1Cl` [Compound 42], the IC50 was not below 1000 nM.

In turn, `O=c1ncn2nc(Sc3ccc(F)cc3Cl)ccc2c1-c1cc2c(cc1Cl)OCO2` [Compound 45] came in with an IC50 of 100 to 1000 nM.

`CN(C)/C=N\c1ccc(-c2c(=O)ncn3nc(Sc4ccc(F)cc4)ccc23)c(Cl)c1` [Compound 50] displayed a 50% inhibitory concentration (IC50) not below 1000 nM.

`CC(=O)Nc1ccc(-c2c(=O)ncn3nc(Sc4ccc(F)cc4)ccc23)c(Cl)c1` [Compound 51] showed an IC50 of 100 to 1000 nM.

Compound `O=C(CN1CCOCC1)Nc1ccc(-c2c(=O)ncn3nc(Sc4ccc(F)cc4)ccc23)c(Cl)c1` [Compound 52] had an IC50 of 100 to 1000 nM.

As for `Nc1cc(F)c(F)cc1SC1=NN2CNC(=O)C(c3c(Cl)cccc3Cl)=C2C=C1` [Compound 119], the IC50 lay within 100 to 1000 nM.

For `NC(=O)C(c1ccc(Sc2ccccc2)nn1)c1ccc(Cl)cc1Cl` (stereo not shown) [Compound 203], the IC50 was not below 1000 nM.

In turn, `NC(=O)C(c1ccc(F)cc1)c1ccc(Sc2ccccc2)nn1` (stereo not shown) [Compound 204] returned an IC50 not below 1000 nM.

Take `Cc1ccc(Sc2ccc(C(C(N)=O)c3ccc(Cl)cc3Cl)nn2)cc1` (stereo not shown) [Compound 205]: the IC50 is not below 1000 nM.

The compound `NC(=O)C(c1ccc(Sc2ccc(F)cc2Cl)nn1)c1ccc(N)cc1Cl` (stereo not shown) [Compound 207] displayed an IC50 not below 1000 nM.

Compound `NC(=O)C(c1cccc(-c2cccc([N+](=O)[O-])c2)n1)c1c(Cl)cccc1Cl` (stereo not shown) [Compound 308] displayed an IC50 not below 1000 nM.

In turn, `CSc1ccc(-c2cccc(C(C(N)=O)c3c(Cl)cccc3Cl)n2)cc1` (stereo not shown) [Compound 314] returned an IC50 not below 1000 nM.

In turn, `NC(=O)C(c1cccc(-c2ccc(C(=O)O)cc2)n1)c1c(Cl)cccc1Cl` (stereo not shown) [Compound 315] had an IC50 not below 1000 nM.

With `NC(=O)C(c1cccc(-c2ccc(C=O)cc2)n1)c1c(Cl)cccc1Cl` (stereo not shown) [Compound 316], the half-maximal inhibitory concentration (IC50) was not below 1000 nM.

For the compound `NC(=O)C(c1cccc(-c2ccsc2)n1)c1c(Cl)cccc1Cl` (stereo not shown) [Compound 318], the IC50 is 100 to 1000 nM.

Compound `NC(=O)C(c1cccc(-c2ccc(C(F)(F)F)cc2)n1)c1c(Cl)cccc1Cl` (stereo not shown) [Compound 319] returned an IC50 not below 1000 nM.

In turn, `NC(=O)C(c1cccc(-c2cccc(C=O)c2)n1)c1c(Cl)cccc1Cl` (stereo not shown) [Compound 321] yielded an IC50 not below 1000 nM.

Compound `NC(=O)C(c1cccc(-c2ccc(Cl)s2)n1)c1c(Cl)cccc1Cl` (stereo not shown) [Compound 326] came in with an IC50 not below 1000 nM.

As to `NC(=O)C(c1cccc(-c2ccccc2C=O)n1)c1c(Cl)cccc1Cl` (stereo not shown) [Compound 327], the IC50 fell in the range of 100 to 1000 nM.

Compound `NC(=O)C(c1cccc(-c2cccc([N+](=O)[O-])c2)n1)c1c(F)cccc1Cl` (stereo not shown) [Compound 328] yielded an IC50 not below 1000 nM.

For the compound `NC(=O)C(c1cccc(-c2ccc(Cl)cc2)n1)c1c(F)cccc1Cl` (stereo not shown) [Compound 330], the IC50 was not below 1000 nM.

With `Cc1ccc(-c2cccc(C(C(N)=O)c3c(F)cccc3Cl)n2)cc1` (stereo not shown) [Compound 331], the IC50 was not below 1000 nM.

For `CSc1ccc(-c2cccc(C(C(N)=O)c3c(F)cccc3Cl)n2)cc1` (stereo not shown) [Compound 334], the IC50 is not below 1000 nM.

The compound `NC(=O)C(c1cccc(-c2ccc(C(=O)O)cc2)n1)c1c(F)cccc1Cl` (stereo not shown) [Compound 336] had an IC50 not below 1000 nM.

With `NC(=O)C(c1cccc(-c2ccc(C=O)cc2)n1)c1c(F)cccc1Cl` (stereo not shown) [Compound 337], the IC50 was not below 1000 nM.

For `NC(=O)C(c1cccc(-c2cccs2)n1)c1c(F)cccc1Cl` (stereo not shown) [Compound 338], the IC50 is not below 1000 nM.

In turn, `NC(=O)C(c1cccc(-c2ccsc2)n1)c1c(F)cccc1Cl` (stereo not shown) [Compound 339] showed an IC50 not below 1000 nM.

Consider `NC(=O)C(c1cccc(-c2ccc(C(F)(F)F)cc2)n1)c1c(F)cccc1Cl` (stereo not shown) [Compound 340], for which the IC50 is not below 1000 nM.

The compound `NC(=O)C(c1cccc(-c2cccc(C=O)c2)n1)c1c(F)cccc1Cl` (stereo not shown) [Compound 342] showed an IC50 not below 1000 nM.

In turn, `COc1cccc(-c2cccc(C(C(N)=O)c3c(F)cccc3Cl)n2)c1` (stereo not shown) [Compound 343] displayed an IC50 not below 1000 nM.
